Reference: patent publication US20060029690A1, “Buckwheat compound and method of obtaining the same for treatment of hyperglycemia” (priority 2004, published 2006)
Read-outs that look alike come from different tables or passages of the source.

Legend:
STZ diabetic rats [1] = experiment: Oral glucose tolerance test in STZ diabetic rats after 12 days (Example 2); assay type: in vivo, rat; conditions: 12 days oral, dosage 0.2 g/kg
Description: […] were divided according to the blood glucose concentration under fasting conditions.
The STZ diabetic rats were divided into 4 groups, each group having 10 rats.
At day 12, oral glucose tolerance tests (2.0 g/kg) were conducted. […] 1 hour later, the rats received glucose at the dose of 2 g/kg (p.o.). Blood samples were taken at 0, 30 and 120 min respectively.

alloxan diabetic mice [2] = experiment: Glucose tolerance test and AUC in alloxan diabetic mice (day 19 and day 22); assay type: in vivo; conditions: for Blood glucose, glucose tolerance test, 0 min: metformin 200 mg/kg, others 5 g/kg
Description: (§1) The animals were made diabetic by a single intravenous injection of 70 mg/kg alloxan into the tail vein. After a period of 4 days, the treated mice were fasted for 2 hours, then the blood sample was taken from the treated mice intravenously. The blood glucose concentration was determined using Glucose Oxidase Peroxidase method. The mice with the blood glucose concentration above 200 mg/dl were marked diabetic mice and were used for further experiments.
(§2) The mice were divided into 5 groups, each group having 9 mice.
(§3) Group 5 received reagent (3) at the dose of 5 g/kg (p.o.).
(§4) At day 7 and 14, measurements of blood glucose concentration were taken after fasting for 2.5 and 5 hours. The change of glucose concentration by percentage was compared against the control group. Blood triglyceride and cholesterol concentrations were tested at day 14 (enzymatic method). Glucose tolerance test (2.0 g/kg, p.o.) was conducted at day 19. First, the mice were fasted for half an hour before the administration of control and test substances. Two and half hours later, the mice received glucose at the dose of 2 g/kg, po. Blood samples were taken at 0, 30, 60, 120 minutes after administration of the glucose. Blood glucose concentration (mg/dl) of the mice were determined and the related measurements of Area Under the Curve (AUC) were estimated. The serum superoxide dismutase (SOD) level of blood samples taken at 0 minute was tested. Glucose tolerance test was conducted again at day 22. The mice were fasted for 1 hour before administration. One and half hour after administration, the mice received glucose at the dose of 2 g/kg, po Blood samples were taken at 0, 30 60, 120 minutes.

alloxan diabetic mice [3] = experiment: Blood glucose level of alloxan diabetic mice at day 7 and 14; assay type: in vivo; conditions: metformin 200 mg/kg
Description: as §1, §2, §3, §4

alloxan diabetic mice [4] = experiment: Blood lipid level (cholesterol, triglyceride) of alloxan diabetic mice at day 14; assay type: in vivo; conditions: metformin 200 mg/kg, others 5000 mg/kg
Description: as §1, §2, §3
as §4, with “The serum superoxide dismutase (SOD) level of blood samples taken at 0 minute was tested. Glucose tolerance test was conducted again at day 22. The mice were fasted for 1 hour before administration. One and half hour after administration, the mice received glucose at the dose of 2 g/kg, po Blood samples were taken at 0, 30 60, 120 minutes.” left out

STZ diabetic rats [5] = experiment: Fasting blood glucose concentration in STZ diabetic rats after 7 days (Example 1); assay type: in vivo, rat; conditions: oral administration for 7 days, metformin 0.2 g/kg, extracts 5.0 g/kg
Description: (§5) The treatments were administered once every day.
At day 7, the rats in groups 1, 2 and 3 were fasted and blood samples were taken at 2.5 hours and 5 hours after fasting began. Blood glucose concentrations (mg/dl) in these samples were then determined.

STZ diabetic rats [6] = experiment: Non-fasting blood glucose, serum SOD activity and catalase (CAT) activity in STZ diabetic rats at day 19; assay type: in vivo, rat; conditions: oral administration for 19 days
Description: as §5
At day 19, blood samples were taken, and blood glucose concentrations without fasting, the activities of SOD and catalase (CAT) levels were determined.

alloxan diabetic mice [7] = experiment: Serum SOD level of alloxan diabetic mice at day 19; assay type: in vivo; conditions: metformin 200 mg/kg, others 5000 mg/kg
Description: as §1, §2, §3
as §4, with “The serum superoxide dismutase (SOD) level of blood samples taken at 0 minute was tested. Glucose tolerance test was conducted again at day 22. The mice were fasted for 1 hour before administration. One and half hour after administration, the mice received glucose at the dose of 2 g/kg, po Blood samples were taken at 0, 30 60, 120 minutes.” left out

STZ diabetic rats [8] = experiment: Glucose tolerance test and AUC in STZ diabetic rats (day 14 and day 21)
Description: (§6) Male rats (Sprague-Dwaley, male), weighing 120 to 140 g, were purchased from VTLF Experiment Animal Technology Center Company Ltd., Beijing P. R. China The animals were made diabetic by a single intraperitoneal injection of streptozocin (freshly prepared in 0.1 M citrate buffer (pH 4.5) at the dose of 58 mg/kg). After a period of 4 days, the treated rats were fasted for 2.5 hours, then blood samples were taken from the treated rats intravenously. Blood glucose concentrations were determined using the Glucose Oxidase Peroxidase method. The rats with blood glucose concentrations above 190 mg/dl were marked as diabetic rats and used for further experiments.
(§7) The rats were divided into 6 groups of 10 rats per group. The difference in the average blood glucose concentrations among the 6 groups was less than 10 mg/dl. Group 1 served as the negative control and received water. […] The remaining four groups received reagents (1) to (4) as listed in Section 1.3.1 above. Reagents (1) and (2) were administered at a dose of 4 g/kg, while (3) and (4) were administered at a dose of 5 g/kg. The treatments were administered once every day.
At day 14, glucose tolerance tests were conducted. The rats were fasted for 1 hour before receiving the reagents at dosages of 2.0 g/kg (p.o.). Blood samples were taken at 0, 30, 60, and 120 min after receiving the reagents. Blood glucose concentrations (mg/dl) were determined and the related AUC were calculated.
At day 21, glucose tolerance tests were conducted. The rats were fasted for 1 hour, then received their respective reagents at the dose of 5 g/kg (p.o.). 2.5 hours after administration of reagent the rats received glucose at a dose of 2 g/kg (p.o.). Blood samples were taken at 0, 30, and 120 minutes after glucose administration. Blood glucose concentrations (mg/dl) were determined and the related AUC were calculated.

STZ diabetic rats [9] = conditions: 7 days oral, dosage 0.2 g/kg
Description: The mice were divided according to the blood glucose concentration under fasting conditions. The difference between the average blood glucose concentrations of the 4 groups of rats was less than 10 mg/dl.
At day 7, fasting blood glucose concentration was tested after 2.5 and 5 hours of fasting. The change of glucose concentration by percentage was compared against the control group.

[10] = Body weight of STZ diabetic rats after 9, 14 and 21 days; conditions: STZ diabetic rat; metformin 0.2 g/kg, flavonoids 4.0 g/kg, extracts 5.0 g/kg
Description: as §6, §7

[11] = day 19, glucose 2 g/kg p.o. 2.5 h after administration
[12] = day 22, glucose 2 g/kg p.o. 1.5 h after administration
[13] = oral administration for 14 days
[14] = oral administration for 21 days

Compound: CN(C)C(=N)N=C(N)N [Metformin, metformin]
- AUC (STZ diabetic rats [1]): 800.9 ± 103.2 mg·h/dL
- Fasting blood glucose concentration, oral glucose tolerance, 0 min (STZ diabetic rats [1]): 398.4 ± 36.6 mg/dL
- Fasting blood glucose concentration, oral glucose tolerance, 30 min (STZ diabetic rats [1]): 458.4 ± 59.7 mg/dL
- Fasting blood glucose concentration, oral glucose tolerance, 120 min (STZ diabetic rats [1]): 323.9 ± 51.2 mg/dL
- reduction of AUC by percentage (STZ diabetic rats [1]; versus control): (14.2) %
- Blood glucose, glucose tolerance test, 30 min (alloxan diabetic mice [2]; [11]): 544.4 ± 45.3 mg/dL
- Blood glucose, glucose tolerance test, 60 min (alloxan diabetic mice [2]; [11]): 512.0 ± 76.9 mg/dL
- Blood glucose, glucose tolerance test, 120 min (alloxan diabetic mice [2]; [11]): 408.4 ± 71.3 mg/dL
- Blood glucose, glucose tolerance test, 0 min (alloxan diabetic mice [2]; [11]): 346.8 ± 68.3 mg/dL
- Blood glucose, glucose tolerance test, 30 min (alloxan diabetic mice [2]; [12]): 474.5 ± 74.4 mg/dL
- Blood glucose, glucose tolerance test, 60 min (alloxan diabetic mice [2]; [12]): 450.7 ± 80.1 mg/dL
- Blood glucose, glucose tolerance test, 120 min (alloxan diabetic mice [2]; [12]): 358.6 ± 88.3 mg/dL
- Blood glucose, glucose tolerance test, 0 min (alloxan diabetic mice [2]; [12]): 377.6 ± 87.6 mg/dL
- effective in lowering blood glucose concentration in alloxan diabetic mice (in words) (alloxan diabetic mice [3]; continuously for 7 and 14 days, extracts 5 g/kg): significant glucose-lowering effect
- Blood glucose concentration at day 7, 2.5 hr after administering (alloxan diabetic mice [3]; day 7, 2.5 hr, p.o. once daily, extracts and flavonoid B 5000 mg/kg): 216.8 ± 78.2 mg/dL
- Blood glucose concentration at day 7, 5 hr after administering (alloxan diabetic mice [3]; day 7, 5 hr, p.o. once daily, others 5000 mg/kg): 182.8 ± 88.1 mg/dL
- Blood glucose concentration at day 14, 2.5 hr after administering (alloxan diabetic mice [3]; day 14, 2.5 hr, p.o. once daily, others 5000 mg/kg): 281.5 ± 60.9 mg/dL
- Blood glucose concentration at day 14, 5 hr after administering (alloxan diabetic mice [3]; day 14, 5 hr, p.o. once daily, others 5000 mg/kg): 221.7 ± 65.9 mg/dL
- blood glucose change by percentage, day 7, 2.5 hr (alloxan diabetic mice [3]; versus control group, day 7, 2.5 hr, others 5000 mg/kg): 34%
- blood glucose change by percentage, day 7, 5 hr (alloxan diabetic mice [3]; versus control group, day 7, 5 hr, others 5000 mg/kg): 32.4%
- blood glucose change by percentage, day 14, 2.5 hr (alloxan diabetic mice [3]; versus control group, day 14, 2.5 hr, others 5000 mg/kg): 21.2%
- blood glucose change by percentage, day 14, 5 hr (alloxan diabetic mice [3]; versus control group, day 14, 5 hr, others 5000 mg/kg): 21.3%
- Blood cholesterol (alloxan diabetic mice [4]): 159.8 ± 48.7 mg/dL
- Blood triglyceride (alloxan diabetic mice [4]): 132.8 ± 34.2 mg/dL
- Fasting blood glucose concentration, 5.0 hr. (STZ diabetic rats [5]; flavonoids 4.0 g/kg): 185.6 ± 78.8 mg/dL
- fasting blood glucose concentration, 2.5 hr. (STZ diabetic rats [5]; flavonoids A and B 4.0 g/kg): 261.1 ± 45.7 mg/dL
- CAT activity (STZ diabetic rats [6]): 64.6 ± 12.5 U/gHb
- Serum SOD activity (STZ diabetic rats [6]): 164.8 ± 16.9 NU/ml
- Non-fasting blood glucose concentration (STZ diabetic rats [6]; metformin 0.2 g/kg, flavonoids 4.0 g/kg, extracts 5.0 g/kg): 340.5 ± 40.7 mg/dL
- Serum SOD (alloxan diabetic mice [7]): 78.3 ± 26.5 u/mg
- AUC of blood glucose (STZ diabetic rats [8]; [13]): 652.5 ± 133.8 mg·h/dL
- blood glucose concentration, glucose tolerance test, 30 min (STZ diabetic rats [8]; [13]): 356.2 ± 93.3 mg/dL
- blood glucose concentration, glucose tolerance test, 60 min (STZ diabetic rats [8]; [13]): 320.9 ± 64.6 mg/dL
- blood glucose concentration, glucose tolerance test, 120 min (STZ diabetic rats [8]; [13]): 296.6 ± 72.6 mg/dL
- blood glucose concentration, glucose tolerance test, 0 min (STZ diabetic rats [8]; oral administration for 14 days, metformin 0.2 g/kg, flavonoids 4.0 g/kg, extracts 5.0 g/kg): 341.8 ± 44.8 mg/dL
- AUC of blood glucose (STZ diabetic rats [8]; [14]): 645.4 ± 122.0 mg·h/dL
- blood glucose concentration, oral glucose tolerance, 30 min (STZ diabetic rats [8]; [14]): 358.0 ± 77.3 mg/dL
- blood glucose concentration, oral glucose tolerance, 120 min (STZ diabetic rats [8]; [14]): 279.8 ± 51.6 mg/dL
- fasting blood glucose concentration, 2.5 hr. (STZ diabetic rats [9]): 357.2 ± 51.5 mg/dL
- fasting blood glucose concentration, 5 hr. (STZ diabetic rats [9]): 288.9 ± 68.8 mg/dL
- reduction of blood glucose concentration by percentage, 2.5 hr. (STZ diabetic rats [9]; versus control): (11.7) %
- reduction of blood glucose concentration by percentage, 5 hr. (STZ diabetic rats [9]; versus control): (22.5) %
- weight at day 9 [10]: 203.3 ± 22.3 g
- weight at day 14 [10]: 200.4 ± 29.4 g
